# In patent EP0958819A1, “REMEDIES/PREVENTIVES FOR ABNORMAL MOTIONS ACCOMPANYING DISORDERS IN EXTRAPYRAMIDAL SYSTEM” (Asahi Kasei Kogyo Kabushiki Kaisha, priority 1996, dated 1998):
# Where a name gives a salt, the structure may show the parent alone. Marks after values point to notes of the source that are not given here.
# Legend:
# [1] = tested on: risperidone-induced catalepsy; experiment: Therapeutic effect against catalepsy model, risperidone-induced; type: in vivo, Wistar rats; conditions: 1 mg/kg p.o. given 75 minutes after risperidone 20 mg/kg i.p. to rats showing catalepsy; measured 105 minutes after compound; 5 to 6 rats
# Description: (§1) Therapeutic effects of the compound of the present invention on haloperidol or risperidone induced catalepsy were examined using Wistar rats, male (Charles River Inc., Canada).
# After further 15 minutes, the compound of the present invention or distilled water was administered orally. Therapeutic effect of the present compound against risperidone induced catalepsy was measured after 105 minutes of administration of the compound of the present invention.
# (§2) Catalepsy was observed by hanging rats in their forepaws on the iron bar, diameter 2 mm, set on the position of 12 cm high, and we measured the duration of catalepsy. Measurements were conducted maximum for 180 seconds. Experiments were conducted in a group of 10 rats for haloperidol-induced catalepsy test and a group of 5 to 6 rats for risperidone induced catalepsy test. The mean duration of catalepsy in distilled water (vehicle of the compound in present invention)-administered group was defined as 100 %. Suppressive rate was indicated as percent of the shortening on the duration of catalepsy in the compound-administered group comparing with the mean of that in distilled water administered group.
# [2] = tested on: haloperidol-induced catalepsy; experiment: Therapeutic effect against catalepsy model, haloperidol-induced; type: in vivo, Wistar rats; conditions: 1 mg/kg p.o. given 45 minutes after haloperidol 2 mg/kg i.p. to rats showing catalepsy; measured 75 minutes after compound; 10 rats
# Description: as §1
# After further 15 minutes, the compound of the present invention or distilled water was administered orally. Therapeutic effect of the present compound against haloperidol induced catalepsy was measured after 75 minutes of administration of the compound of the present invention.
# as §2
# [3] = tested on: haloperidol-induced catalepsy; experiment: Preventive effect for catalepsy model, haloperidol-induced; type: in vivo, Wistar rats; conditions: 1 mg/kg p.o. 30 minutes before haloperidol 2 mg/kg i.p.; catalepsy observed 1 hour after haloperidol; shortening of catalepsy duration vs distilled water group; 10 rats
# Description: (§3) When a drug having dopamine receptor blocking activity is administered in rats, catalepsy induced. Catalepsy means a symptom of rats, which can not recovered by own intention, when rats are enforced unnatural posture, and it reflects abnormal movements consisting of mainly tremor, muscle rigidity and hypokinesia. (Hornykiewicz, O. Br. Med. Bull., 29, 172 - 178, 1973). […] (Schmidt, W.J. and Bubser, M., Pharmacol. Biochem. Behavior., 32, 621 - 623, 1988).
# (§4) The compound A hydrochloride, 1mg/kg, was administered orally into Wistar rats, male (Japan Charles River Inc.). After 30 minutes, haloperidol (Sigma Corp., U.S.A.), 2mg/kg, or risperidone, which was extracted from Risperdal (trade name, Janssen Corp.,UK) according to the method hereinbelow explained, 20 mg/kg were administered intraperitoneally. Catalepsy after 1 hour of administration of haloperidol or risperidone was observed. Catalepsy was observed by hanging rats in their forepaws on the iron bar, diameter 2 mm, set on the position of 12 cm high, and we measured the time maintaining this posture. Measurements were conducted maximum for 180 seconds. Experiments were conducted in a group of 10 rats for haloperidol induced catalepsy test and a group of 5 rats for risperidone induced catalepsy test. The mean duration of catalepsy in distilled water (vehicle of the compound in present invention)-administered group was defined as 100 %. […]
# red nucleus = experiment: Effect on the firing rate in the red nucleus (electrophysiology, anesthetized rats); type: in vivo, Wistar rats; conditions: firing rate before administration = 100 %
# Excerpt: The red nucleus belongs extrapyramidal system and have an important role for regulating motor function. Destruction of the red nucleus in rats was reported to enhance the catalepsy. (Kolasa. K. et al., Pharmacol. Biochem. Behav.,51, 29 - 35, 1995). As shown in Example 4 dystonia model, unilateral infusion of haloperidol into red nucleus of rats results to appear dystonia. As shown like this, the hypofunction of red nucleus have a close relation with the expression of abnormal movements accompanying disorders of extrapyramidal system. Namely, hypofunction of red nucleus is considered to lead to the abnormal movements accompanying disorder of extrapyramidal system. In this experiment, effect of the compound of the present invention on the haloperidol-induced decrease of firing rate in red nucleus was examined. […]
# Electric signals from the glass electrode were amplified with a micro electrode amplifier (MEZ-8301, Nihon Koden Co., Japan), filtered band path of 3 kHz - 50 Hz and humfilter and monitored on a oscilloscope (VC-11, Nihon Koden Co., Japan). […] Number of firing/10 seconds (firing rate) was calculated using pulse counter (MET-1100, Nihon Koden Co., Japan) and recorded by computer (Maclab ver. 3.5. Macintosh) with time dependent manner. […]
# [4] = tested on: risperidone-induced catalepsy; experiment: Preventive effect for catalepsy model, risperidone-induced; type: in vivo, Wistar rats; conditions: 1 mg/kg p.o. 30 minutes before risperidone 20 mg/kg i.p.; catalepsy observed 1 hour after risperidone; shortening of catalepsy duration vs distilled water group; 5 rats
# Description: as §3, §4
# [5] = tested on: involuntary head-movements induced by IPDN; experiment: Antagonistic action against IDPN model (head movements); type: in vivo, Sprague-Dawley rats; conditions: 1 mg/kg p.o.; IDPN 150 mg/kg i.p. for 6 days; counted during 30 minutes starting 30 minutes after dosing; mean ± standard error, 6 rats; control group 347 ± 14.4; p < 0.01
# Description: When […] (IDPN, Tokyo Kasei Kogyo K.K., Japan) is administered in rats, rapid reciprocation of horizontal and vertical head movements is induced. […] This is very similar to the abnormal movements accompanying disorders of extrapyramidal system of human, which is classified into the group with major symptom of rapid involuntary movement and muscle hypotonia. (Schneider, J. S., Exp. Neurol., 84, 524 - 532, 1984).
# IDPN (Tokyo Kasei Kogyo K.K., Japan) 150 mg/kg was administered to Sprague-Dawley rats (Charles River Inc., 7 weeks old) for 6 days intraperitoneally. Animals expressing horizontal and vertical head movements (at initiation of the experiment: 12 - 14 weeks old) within after 2 weeks of administration were used for dyskinesia model animals. The compound of the present invention (1 mg/kg) or distilled water (as a control group) was administered orally in rats. After 30 minutes, numbers of horizontal and vertical head movements neck during 30 minutes thereafter were counted. One reciprocation is counted as one motion.
# dystonia model = experiment: Inhibitory effect against dystonia model (haloperidol infused into red nucleus); type: in vivo, Wistar rats; conditions: combined infusion of haloperidol 3 nmol and compound 0.03 nmol into red nucleus; maximum torsional angle, mean ± S.D., 12 rats; control (haloperidol 3 nmol) 24.1 ± 1.7; p<0.01
# Excerpt: Unilateral infusion of haloperidol into red nucleus of rats results to appear continuous torsional movements of the head when the infusion side was laid down under side. This model reflects dystonia characterized by slow involuntary movement and hypermyotonia, which is one of abnormal movements accompanying disorders of extrapyramidal system. (Matsumoto, R.R. et al. Pharmacol. Biochem. Behavior.,36, 151 - 155, 1989). Evaluation of the compound of the present invention on dystonia model was performed by the following method.
# Wistar rats (Japan Charles River Inc., 9 weeks old) were anesthetized by administration of pentobarbital (Somnopentil injection) 50 mg/kg intraperitoneally, and fixed the head by stereotaxic apparatus (David Coop Inc. U.S.A., David kopf). Scalp was incised and the bone of skull was exposed. Guide cannula 25G (Eicom Inc., Japan) was implanted 4.5 mm the above the left red nucleus and fixed with dental cement. After 2 - 3 days, injection cannula 27G (Eicom Inc., Japan) was inserted into the guide cannula without anesthetization. The tip of the cannula was introduced into the red nucleus below 4.5 mm of the guided cannula. […]
# Rats were set into the observation cage made with transparent acrylic resin and recorded the front view image by video camera. […]
compound,measurement,setting,value
"CC1(C)C2CC[C@]1(C)CN(CCC1C3CC4CC(C3)CC1C4)C2 (stereo partly drawn) [Compound A hydrochloride, (1S)-3-[2-(2-adamantyl)ethyl]-1,8,8-trimethyl-3-azabicyclo [3.2.1]-octane]","Suppressive rate (mg/kg, p.o.)",[1],48% (1)
same,"Suppressive rate (mg/kg, p.o.)",[2],50% (1)
same,"Suppressive rate (mg/kg, p.o.)",[3],77% (1)
same,% Inhibitor of firing rate,"red nucleus; compound 0.1 µg/kg i.v. 1 - 3 minutes before haloperidol 0.2 mg/kg i.v., P<0.05",24.7 %*
same,"Suppressive rate (mg/kg, p.o.)",[4],53% (1)
"CC1(C)C2CC[C@]1(C)CN(CCC1C3CC4CC(C3)CC1C4)C2 (stereo partly drawn) [Compound A, (1S)-3-[2-(2-adamantyl)ethyl]-1,8,8-trimethyl-3-azabicyclo [3.2.1]-octane]",Numbers of oscillation of neck,[5],224.5 ± 24.4
same,torsional angle of head,dystonia model,15.5 ± 1.3
"O=C(CCCN1CCC(O)(c2ccc(Cl)cc2)CC1)c1ccc(F)cc1 [haloperidol, reference compound]",% Inhibitor of firing rate,red nucleus; saline i.v. 1 - 3 minutes before haloperidol 0.2 mg/kg i.v.,60.1%
